Where “and” joins values, the source holds several entries; their conditions need not be identical. Identical values can stand only once.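 Results reflect a 48-hour exposure of cells in 96-well plates to compound at five concentrations. GI50 is the concentration that inhibits growth by half. The concentration for full growth arrest is given as TGI.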
Experiments:
Assay in all cases: NCI anticancer screen, dose series, 48 h
OVCAR-5 ovarian = test system: OVCAR-5 ovarian
CAKI-1 renal = test system: CAKI-1 renal
RXF 393 renal = test system: RXF 393 renal
SF-268 CNS = test system: SF-268 CNS
M14 melanoma = test system: M14 melanoma
SK-MEL-28 melanoma = test system: SK-MEL-28 melanoma
U251 CNS = test system: U251 CNS
SF-539 CNS = test system: SF-539 CNS
EKVX NSCLC = test system: EKVX NSCLC
HL-60(TB) leukemia = test system: HL-60(TB) leukemia

| Structure (SMILES) | TGI (OVCAR-5 ovarian) | TGI (CAKI-1 renal) | TGI (RXF 393 renal) | TGI (SF-268 CNS) | TGI (M14 melanoma) | TGI (SK-MEL-28 melanoma) | TGI (U251 CNS) | TGI (SF-539 CNS) | TGI (EKVX NSCLC) | TGI (HL-60(TB) leukemia) | GI50 (OVCAR-5 ovarian) | GI50 (CAKI-1 renal) | GI50 (RXF 393 renal) | GI50 (SF-268 CNS) | GI50 (M14 melanoma) | GI50 (SK-MEL-28 melanoma) | GI50 (U251 CNS) | GI50 (SF-539 CNS) | GI50 (EKVX NSCLC) | GI50 (HL-60(TB) leukemia) |
| --- | --- | --- | --- | --- | --- | --- | --- | --- | --- | --- | --- | --- | --- | --- | --- | --- | --- | --- | --- | --- |
| Oc1ccc2c3c1OC1C(=NN=C4CCC5(O)C6Cc7ccc(O)c8c7C5(CCN6CC5CC5)C4O8)CCC4(O)C(C2)N(CC2CC2)CCC314 (stereo unspecified) | > 100 µM | > 100 µM | > 100 µM | > 83.3 µM | 33.4 µM | 49.4 µM | 32.1 µM | > 55.5 µM | > 85.2 µM | 39.8 µM | – | – | – | – | – | – | – | – | – | – |
| CC1CC(C)/C(=N/NC(N)=O)C(C(O)CC2CCC(=O)NC2=O)C1 (stereo unspecified) | 86.2 µM | 20.3 µM | 31.7 µM | 45.1 µM | > 100 µM | > 100 µM | 91.1 µM | 39.8 µM | 22.6 µM | > 100 µM | 3.73 µM | 1.22 µM | 3.21 µM | 2.98 µM | 3.64 µM | 3.91 µM | 1.96 µM | 3.07 µM | 2.3 µM | 5.6 µM |
| O=C1CCCC(=O)C1=C(O)CCCCCCCCCCc1ccccc1 | 74.6 µM | 38 µM | 92.7 µM | > 100 µM | > 100 µM | > 100 µM | > 100 µM | > 100 µM | > 100 µM | 35.1 µM | – | – | – | – | – | – | – | – | – | – |
| Cn1ccnc1C(=O)/C=C/c1ccc(C(=O)Nc2ccccc2O)cc1 | 7.09 µM | 4.03 µM | 3.41 µM | 7.2 µM | 4.28 µM | 5.07 µM | 4.03 µM | 3.5 µM | 7.09 µM | 5.73 µM | 2.39 µM | 1.65 µM | 1.62 µM | 2.39 µM | 1.82 µM | 2.11 µM | 1.46 µM | 1.56 µM | 2.45 µM | 2.13 µM |
| COc1cc(C2CC(c3ccc(Nc4ccnc5cc(Cl)ccc45)cc3)=NN2C=O)cc(OC)c1OC (stereo unspecified) | > 100 µM | 26.5 µM | 8.01 µM | > 100 µM | 13.9 µM | 4.81 µM | 4.76 µM | 6.38 µM | > 100 µM | 7.4 µM | 69.2 µM | 5.47 µM | 2.22 µM | 28 µM | 3.75 µM | 2.22 µM | 2.06 µM | 2.75 µM | 11.7 µM | 2.53 µM |
| COc1cc(C(=O)N2CCN(c3ccccc3OC)CC2)c(N)cc1OCc1ccccc1 | > 100 µM | > 100 µM | 85.9 µM | > 100 µM | > 100 µM | > 100 µM | > 100 µM | > 100 µM | > 100 µM | 48.8 µM | 80.6 µM | 37.9 µM | 25.3 µM | 43.8 µM | 39.3 µM | 43.4 µM | 41.8 µM | 45.3 µM | 35.7 µM | 25.5 µM |
| Cc1cc(Cl)ccc1NC(=O)CC1SC(N)=NC1=O (stereo unspecified) | > 100 µM | > 100 µM | > 100 µM | > 100 µM | > 100 µM | > 100 µM | > 100 µM | > 100 µM | > 100 µM | > 100 µM | – | – | – | – | – | – | – | – | – | – |
| N#CCC12CC=CCC1=C(O)C(=O)c1ccc(O)cc12 (stereo unspecified) | > 100 µM | > 100 µM | > 100 µM | > 100 µM | > 100 µM | > 100 µM | > 100 µM | > 100 µM | > 100 µM | > 100 µM | – | – | – | – | – | – | – | – | – | – |
| O=C1C2C(C(=O)N1c1ccccc1)C1(c3ccccc3)OC2(c2ccccc2)c2ccccc21 (stereo unspecified) | > 100 µM | > 100 µM | > 100 µM | > 100 µM | > 100 µM | > 100 µM | > 100 µM | > 100 µM | > 100 µM | > 100 µM | – | – | – | – | – | – | – | – | – | – |
| CC(C)=CCc1ccc(O)c(=O)cc1C(C)C | > 100 µM | 2.4 µM | 17.4 µM | > 100 µM | 3.95 µM | > 100 µM | > 100 µM | > 41.1 µM | > 100 µM | 8.72 µM | 3.39 µM | 0.29 µM | 1.55 µM | 0.671 µM | 0.68 µM | 0.917 µM | 0.472 µM | 0.764 µM | 0.831 µM | 0.624 µM |
| O=C(N/N=c1/ccoc2cccnc12)N1CCN(c2ncccn2)CC1 | 38.3 µM | 7.64 µM | 4.03 µM | 15.1 µM | 2.59 µM | 13.3 µM | 9.15 µM | 9.58 µM | 10.6 µM | 1.69 µM | 1.5 µM | 0.425 µM | 1.09 µM | 0.795 µM | 0.0831 µM | 0.996 µM | 0.0777 µM | 1.39 µM | 0.16 µM | 0.0149 µM |
| C/C=C(\CCC1NCCc2c1[nH]c1ccccc21)[Si](C)(C)C (stereo unspecified) | 16.6 µM and 8.04 µM | 21.4 µM and 11 µM | 17.6 µM and 2.53 µM | 26.2 µM and 23.6 µM | 8.8 µM and 3.66 µM | 11.3 µM and 3.36 µM | 10.5 µM and 3.27 µM | 11.9 µM and 3.09 µM | 28.6 µM and 22.1 µM | 13.2 µM and 3.3 µM | 6.34 µM and 2.42 µM | 7.02 µM and 2.72 µM | – | – | 4.65 µM and 1.82 µM | 6.42 µM and 1.83 µM | 5.79 µM and 1.8 µM | 6.2 µM and 1.66 µM | – | 6.28 µM and 1.51 µM |
| CC(C)=CC(O)C/C(C)=C/CC/C(C)=C/CCC1(C)C(CCCO)/C(=C(/C)C=O)CCC1(C)O (stereo unspecified) | > 100 µM | > 100 µM | 90.6 µM | > 100 µM | 60.9 µM | > 100 µM | > 100 µM | 52 µM | > 100 µM | 43.7 µM | – | – | – | – | – | – | – | – | – | – |
| COc1cc2c3c(n(CCCNC(=O)OCC4c5ccccc5-c5ccccc54)c(=O)c2cc1OC)-c1cc2c(cc1C3=O)OCO2 | > 100 µM | > 100 µM | > 73.9 µM | > 72.4 µM | > 100 µM | > 100 µM | > 87.6 µM | 31.2 µM | > 100 µM | > 100 µM | > 100 µM | 4.05 µM | 20.1 µM | 16.6 µM | 36.8 µM | > 100 µM | 1.67 µM | 7.25 µM | > 100 µM | > 81.2 µM |
| COc1cc(Nc2ncc3c(C)nc(-c4cccc(Oc5ccccc5)c4)n3n2)cc(OC)c1OC | > 25 µM | > 25 µM | > 25 µM | > 22.7 µM | 19 µM | > 25 µM | > 25 µM | > 25 µM | > 25 µM | 14.1 µM | 11.6 µM | 1.24 µM | 2.28 µM | 6.6 µM | 3.54 µM | 7.63 µM | 6.51 µM | 7.07 µM | 11.2 µM | 6.01 µM |
| O[C@@H]1CCCN1Cc1cc2cc3c(cc2c2cc(OCc4ccccc4)ccc12)OCO3 | 21.2 µM | 12.6 µM | 3.85 µM | 20.1 µM | 3.35 µM | 3.85 µM | 14.8 µM | 10.4 µM | 27.3 µM | 4.13 µM | 5.64 µM | 3.42 µM | 1.53 µM | 4.78 µM | 1.81 µM | 1.78 µM | 3.58 µM | 3.19 µM | 11.6 µM | 1.94 µM |
| N#Cc1c(NC(=O)c2cccc3ccccc23)sc2c1CCCC2 | > 25 µM | > 25 µM | 0.121 µM | > 25 µM | 0.116 µM | > 25 µM | > 25 µM | > 25 µM | > 25 µM | – | 0.139 µM | 0.0637 µM | 0.0331 µM | 0.171 µM | 0.0249 µM | 0.0401 µM | 0.0622 µM | 0.0274 µM | 0.132 µM | 0.0545 µM |

From PubChem BioAssay (NCI)
